# Measured values reported in ChEMBL document CHEMBL4152339, “Design and synthesis of novel 1H-tetrazol-5-amine based potent antimicrobial agents: DNA topoisomerase IV and gyrase affinity evaluation supported by molecular docking studies” (Eur J Med Chem, 2018).
# What was measured:
# [1] = test system: Bordetella bronchiseptica; experiment: Antibacterial activity against Bordetella bronchiseptica ATCC 4617 after 18 hrs by CLSI disc diffusion method; type: functional; conditions: ATCC 4617, 18 h
# Staphylococcus aureus [2] = experiment: Antibacterial activity against Staphylococcus aureus 585 after 18 hrs by CLSI disc diffusion method; type: functional; conditions: Staphylococcus aureus, 585, 18 h
# Staphylococcus aureus [3] = experiment: Antibacterial activity against Staphylococcus aureus 496 after 18 hrs by CLSI disc diffusion method; type: functional; conditions: Staphylococcus aureus, 496, 18 h
# Proteus vulgaris = experiment: Antibacterial activity against Proteus vulgaris NCTC 4635 after 18 hrs by CLSI disc diffusion method; type: functional; conditions: NCTC 4635, 18 h
# Escherichia coli [4] = experiment: Antibacterial activity against Escherichia coli ML 17 after 18 hrs by CLSI disc diffusion method; type: functional; conditions: ML 17, 18 h
# Escherichia coli [5] = experiment: Antibacterial activity against Escherichia coli ML 5 after 18 hrs by CLSI disc diffusion method; type: functional; conditions: ML 5, 18 h
# Pseudomonas aeruginosa [6] = experiment: Antibacterial activity against Pseudomonas aeruginosa ATCC 27853 after 18 hrs by CLSI disc diffusion method; type: functional; conditions: ATCC 27853, 18 h
# Staphylococcus aureus [7] = experiment: Antibacterial activity against Staphylococcus aureus 537 after 18 hrs by CLSI disc diffusion method; type: functional; conditions: Staphylococcus aureus, 537, 18 h
# [8] = test system: Staphylococcus epidermidis; experiment: Antibacterial activity against Staphylococcus epidermidis 511 after 18 hrs by CLSI disc diffusion method; type: functional; conditions: Staphylococcus epidermidis, 511, 18 h
# [9] = test system: Staphylococcus epidermidis; experiment: Antibacterial activity against Staphylococcus epidermidis ATCC 12228 after 18 hrs by CLSI disc diffusion method; type: functional; conditions: ATCC 12228, 18 h
# Staphylococcus aureus [10] = experiment: Antibacterial activity against Staphylococcus aureus NCTC 4163 after 18 hrs by CLSI disc diffusion method; type: functional; conditions: NCTC 4163, 18 h
# Escherichia coli [11] = experiment: Antibacterial activity against Escherichia coli ML 8 after 18 hrs by CLSI disc diffusion method; type: functional; conditions: ML 8, 18 h
# [12] = test system: Staphylococcus epidermidis; experiment: Antibacterial activity against Staphylococcus epidermidis 431 after 18 hrs by CLSI disc diffusion method; type: functional; conditions: Staphylococcus epidermidis, 431, 18 h
# Micrococcus luteus [13] = experiment: Antibacterial activity against Micrococcus luteus ATCC 9341 after 18 hrs by CLSI disc diffusion method; type: functional; conditions: ATCC 9341, 18 h
# Pseudomonas aeruginosa [14] = experiment: Antibacterial activity against Pseudomonas aeruginosa 31m after 18 hrs by CLSI disc diffusion method; type: functional
# Escherichia coli [15] = experiment: Antibacterial activity against Escherichia coli ML 15 after 18 hrs by CLSI disc diffusion method; type: functional; conditions: ML 15, 18 h
# Staphylococcus aureus [16] = experiment: Antibacterial activity against Staphylococcus aureus 572 after 18 hrs by CLSI disc diffusion method; type: functional; conditions: Staphylococcus aureus, 572, 18 h
# Staphylococcus aureus [17] = experiment: Antibacterial activity against Staphylococcus aureus 497 after 18 hrs by CLSI disc diffusion method; type: functional; conditions: Staphylococcus aureus, 497, 18 h
# Staphylococcus aureus [18] = experiment: Antibacterial activity against Staphylococcus aureus 495 after 18 hrs by CLSI disc diffusion method; type: functional; conditions: Staphylococcus aureus, 495, 18 h
# [19] = test system: Staphylococcus epidermidis; experiment: Antibacterial activity against Staphylococcus epidermidis 423 after 18 hrs by CLSI disc diffusion method; type: functional; conditions: Staphylococcus epidermidis, 423, 18 h
# Pseudomonas aeruginosa [20] = experiment: Antibacterial activity against Pseudomonas aeruginosa 7m after 18 hrs by CLSI disc diffusion method; type: functional
# Pseudomonas aeruginosa [21] = experiment: Antibacterial activity against Pseudomonas aeruginosa 6m after 18 hrs by CLSI disc diffusion method; type: functional
# [22] = test system: Staphylococcus epidermidis; experiment: Antibacterial activity against Staphylococcus epidermidis 469 after 18 hrs by CLSI disc diffusion method; type: functional; conditions: Staphylococcus epidermidis, 469, 18 h
# Enterococcus hirae = experiment: Antibacterial activity against Enterococcus hirae ATCC 10541 after 18 hrs by CLSI disc diffusion method; type: functional; conditions: ATCC 10541, 18 h
# Escherichia coli [23] = experiment: Antibacterial activity against Escherichia coli ML 9 after 18 hrs by CLSI disc diffusion method; type: functional; conditions: ML 9, 18 h
# [24] = test system: Staphylococcus epidermidis; experiment: Antibacterial activity against Staphylococcus epidermidis 471 after 18 hrs by CLSI disc diffusion method; type: functional; conditions: Staphylococcus epidermidis, 471, 18 h
# Pseudomonas aeruginosa [25] = experiment: Antibacterial activity against Pseudomonas aeruginosa 16m after 18 hrs by CLSI disc diffusion method; type: functional
# Pseudomonas aeruginosa [26] = experiment: Antibacterial activity against Pseudomonas aeruginosa ATCC 15442 after 18 hrs by CLSI disc diffusion method; type: functional; conditions: ATCC 15442, 18 h
# Staphylococcus aureus [27] = experiment: Antibacterial activity against Staphylococcus aureus 586 after 18 hrs by CLSI disc diffusion method; type: functional; conditions: Staphylococcus aureus, 586, 18 h
# Staphylococcus aureus [28] = experiment: Antibacterial activity against Staphylococcus aureus 498 after 18 hrs by CLSI disc diffusion method; type: functional; conditions: Staphylococcus aureus, 498, 18 h
# Staphylococcus aureus [29] = experiment: Antibacterial activity against Staphylococcus aureus ATCC 6538 after 18 hrs by CLSI disc diffusion method; type: functional; conditions: ATCC 6538, 18 h
# Pseudomonas aeruginosa [30] = experiment: Antibacterial activity against Pseudomonas aeruginosa 12m after 18 hrs by CLSI disc diffusion method; type: functional
# Pseudomonas aeruginosa [31] = experiment: Antibacterial activity against Pseudomonas aeruginosa 11m after 18 hrs by CLSI disc diffusion method; type: functional
# Escherichia coli [32] = experiment: Antibacterial activity against Escherichia coli ML 6 after 18 hrs by CLSI disc diffusion method; type: functional; conditions: ML 6, 18 h
# Enterococcus faecalis = experiment: Antibacterial activity against Enterococcus faecalis ATCC 29212 after 18 hrs by CLSI disc diffusion method; type: functional; conditions: ATCC 29212, 18 h
# [33] = test system: Staphylococcus epidermidis; experiment: Antibacterial activity against Staphylococcus epidermidis 433 after 18 hrs by CLSI disc diffusion method; type: functional; conditions: Staphylococcus epidermidis, 433, 18 h
# [34] = test system: Staphylococcus epidermidis; experiment: Antibacterial activity against Staphylococcus epidermidis 510 after 18 hrs by CLSI disc diffusion method; type: functional; conditions: Staphylococcus epidermidis, 510, 18 h
# Bacillus cereus = experiment: Antibacterial activity against Bacillus cereus ATCC 11778 after 18 hrs by CLSI disc diffusion method; type: functional; conditions: ATCC 11778, 18 h
# [35] = test system: Staphylococcus epidermidis; experiment: Antibacterial activity against Staphylococcus epidermidis 432 after 18 hrs by CLSI disc diffusion method; type: functional; conditions: Staphylococcus epidermidis, 432, 18 h
# Staphylococcus aureus [36] = experiment: Antibacterial activity against Staphylococcus aureus ATCC 25923 after 18 hrs by CLSI disc diffusion method; type: functional; conditions: ATCC 25923, 18 h
# Bacillus spizizenii = experiment: Antibacterial activity against Bacillus subtilis ATCC 6633 after 18 hrs by CLSI disc diffusion method; type: functional; conditions: ATCC 6633, 18 h
# Escherichia coli [37] = experiment: Antibacterial activity against Escherichia coli ML 16 after 18 hrs by CLSI disc diffusion method; type: functional; conditions: ML 16, 18 h
# [38] = test system: Staphylococcus epidermidis; experiment: Antibacterial activity against Staphylococcus epidermidis ATCC 35984 after 18 hrs by CLSI […] method; type: functional; conditions: ATCC 35984, 18 h
# Pseudomonas aeruginosa [39] = experiment: Antibacterial activity against Pseudomonas aeruginosa 10m after 18 hrs by CLSI disc diffusion method; type: functional
# Micrococcus luteus [40] = experiment: Antibacterial activity against Micrococcus luteus ATCC 10240 after 18 hrs by CLSI disc diffusion method; type: functional; conditions: ATCC 10240, 18 h
# Escherichia coli [41] = experiment: Antibacterial activity against Escherichia coli ML 12 after 18 hrs by CLSI disc diffusion method; type: functional; conditions: ML 12, 18 h
# Escherichia coli [42] = experiment: Antibacterial activity against Escherichia coli ATCC 10538 after 18 hrs by CLSI disc diffusion method; type: functional; conditions: ATCC 10538, 18 h
# Pseudomonas aeruginosa [43] = experiment: Antibacterial activity against Pseudomonas aeruginosa 18m after 18 hrs by CLSI disc diffusion method; type: functional
# [44] = Selectivity index, ratio of IC50 for human HaCaT cells to MIC for Proteus vulgaris NCTC 4635; type: toxicity; conditions: read-out: Selectivity Index
# HaCaT = experiment: Cytotoxicity activity against human HaCaT cells assessed as reduction in cell viability after 72 hrs by MTT assay; type: cell-based
# A549 = experiment: Cytotoxicity activity against human A549 cells assessed as reduction in cell viability after 72 hrs by MTT assay; type: cell-based; conditions: A549, 72 h
# [45] = Selectivity index, ratio of IC50 for human HaCaT cells to MIC for Bordetella bronchiseptica ATCC 4617; type: toxicity; conditions: read-out: Selectivity Index
# [46] = Inhibition of Staphylococcus aureus DNA topoisomerase 4 using Kinetoplast DNA as substrate after 30 mins by ethidium bromide staining based agarose gel electrophoresis method
# [47] = Selectivity index, ratio of IC50 for human HaCaT cells to MIC for Micrococcus luteus ATCC 10240; type: toxicity; conditions: read-out: Selectivity Index
# [48] = Selectivity index, ratio of IC50 for human HaCaT cells to MIC for Staphylococcus aureus NCTC 4163; type: toxicity; conditions: read-out: Selectivity Index
# [49] = Selectivity index, ratio of IC50 for human HaCaT cells to MIC for Bacillus subtilis ATCC 6633; type: toxicity; conditions: read-out: Selectivity Index
# [50] = Selectivity index, ratio of IC50 for human HaCaT cells to MIC for Enterococcus hirae ATCC 10541; type: toxicity; conditions: read-out: Selectivity Index
# [51] = Selectivity index, ratio of IC50 for human HaCaT cells to MIC for Escherichia coli ATCC 10538; type: toxicity; conditions: read-out: Selectivity Index
smiles,measurement,setting,value
O=C(O)n1nnnc1Nn1cnnc1,MIC,[1],652 µM
same,MIC,Staphylococcus aureus [2],82 µM
same,MIC,Staphylococcus aureus [3],82 µM
same,MIC,Proteus vulgaris,10 µM
same,MIC,Escherichia coli [4],326 µM
same,MIC,Escherichia coli [5],326 µM
same,MIC,Pseudomonas aeruginosa [6],1300 µM
same,MIC,Staphylococcus aureus [7],82 µM
same,MIC,[8],20 µM
same,MIC,[9],10 µM
same,MIC,Staphylococcus aureus [10],20 µM
same,MIC,Escherichia coli [11],326 µM
same,MIC,[12],20 µM
same,MIC,Micrococcus luteus [13],20 µM
same,MIC,Pseudomonas aeruginosa [14],326 µM
same,MIC,Escherichia coli [15],1300 µM
same,MIC,Staphylococcus aureus [16],41 µM
same,MIC,Staphylococcus aureus [17],82 µM
same,MIC,Staphylococcus aureus [18],41 µM
same,MIC,[19],20 µM
same,MIC,Pseudomonas aeruginosa [20],326 µM
same,MIC,Pseudomonas aeruginosa [21],326 µM
same,MIC,[22],20 µM
same,MIC,Enterococcus hirae,10 µM
same,MIC,Escherichia coli [23],326 µM
same,MIC,[24],41 µM
same,MIC,Pseudomonas aeruginosa [25],326 µM
same,MIC,Pseudomonas aeruginosa [26],1300 µM
same,MIC,Staphylococcus aureus [27],82 µM
same,MIC,Staphylococcus aureus [28],82 µM
same,MIC,Staphylococcus aureus [29],20 µM
same,MIC,Pseudomonas aeruginosa [30],326 µM
same,MIC,Pseudomonas aeruginosa [31],652 µM
same,MIC,Escherichia coli [32],1300 µM
same,MIC,Enterococcus faecalis,10 µM
same,MIC,[33],20 µM
same,MIC,[34],20 µM
same,MIC,Bacillus cereus,10 µM
same,MIC,[35],41 µM
same,MIC,Staphylococcus aureus [36],20 µM
same,MIC,Bacillus spizizenii,5 µM
same,MIC,Escherichia coli [37],326 µM
same,MIC,[38],5 µM
same,MIC,Pseudomonas aeruginosa [39],326 µM
same,MIC,Micrococcus luteus [40],20 µM
same,MIC,Escherichia coli [41],> 1300 µM
same,MIC,Escherichia coli [42],20 µM
same,MIC,Pseudomonas aeruginosa [43],652 µM
Cc1ccc(-n2nnnc2NCc2ccco2)cc1Cl,MIC,[1],14 µM
same,MIC,Staphylococcus aureus [2],7 µM
same,selectivity ratio,[44],11.4
same,MIC,Staphylococcus aureus [3],14 µM
same,IC50,HaCaT,80 µM
same,IC50,A549,78 µM
same,MIC,Proteus vulgaris,14 µM
same,MIC,Escherichia coli [4],14 µM
same,MIC,Escherichia coli [5],14 µM
same,MIC,Pseudomonas aeruginosa [6],14 µM
same,MIC,Staphylococcus aureus [7],14 µM
same,MIC,[8],14 µM
same,MIC,[9],7 µM
same,MIC,Staphylococcus aureus [10],14 µM
same,MIC,Escherichia coli [11],14 µM
same,MIC,[12],7 µM
same,MIC,Micrococcus luteus [13],14 µM
same,MIC,Pseudomonas aeruginosa [14],14 µM
same,MIC,Escherichia coli [15],111 µM
same,MIC,Staphylococcus aureus [16],14 µM
same,MIC,Staphylococcus aureus [17],7 µM
same,MIC,Staphylococcus aureus [18],7 µM
same,MIC,[19],7 µM
same,MIC,Pseudomonas aeruginosa [20],14 µM
same,MIC,Pseudomonas aeruginosa [21],14 µM
same,MIC,[22],7 µM
same,MIC,Enterococcus hirae,28 µM
same,MIC,Escherichia coli [23],28 µM
same,MIC,[24],14 µM
same,MIC,Pseudomonas aeruginosa [25],28 µM
same,selectivity ratio,[45],11.4
same,MIC,Pseudomonas aeruginosa [26],111 µM
same,IC50,[46],11.9 µg/mL
same,MIC,Staphylococcus aureus [27],14 µM
same,MIC,Staphylococcus aureus [28],7 µM
same,MIC,Staphylococcus aureus [29],7 µM
same,MIC,Pseudomonas aeruginosa [30],14 µM
same,selectivity ratio,[47],11.4
same,MIC,Pseudomonas aeruginosa [31],28 µM
same,MIC,Escherichia coli [32],111 µM
same,selectivity ratio,[48],5.71
same,MIC,Enterococcus faecalis,56 µM
same,MIC,[33],14 µM
same,selectivity ratio,[49],11.4
same,MIC,[34],14 µM
same,MIC,Bacillus cereus,7 µM
same,MIC,[35],14 µM
same,MIC,Staphylococcus aureus [36],14 µM
same,MIC,Bacillus spizizenii,7 µM
same,MIC,Escherichia coli [37],14 µM
same,selectivity ratio,[50],2.85
same,MIC,[38],7 µM
same,MIC,Pseudomonas aeruginosa [39],14 µM
same,MIC,Micrococcus luteus [40],7 µM
same,MIC,Escherichia coli [41],111 µM
same,MIC,Escherichia coli [42],14 µM
same,MIC,Pseudomonas aeruginosa [43],28 µM
same,selectivity ratio,[51],11.4
